# Source: ChEMBL document CHEMBL1201862, “PubChem BioAssay data set” (2004)
#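 Test compounds were applied to cells in 96-well plates for 48 hours at 5 doses. Abbreviation: GI50, concentration required for 50% inhibition of growth.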 The source made the active and inactive calls. Cut-off read from the data, not from the text of the source: active = GI50 up to about 1.1 µM and inactive = higher.
# Assays:
# Experiment in all cases: inhibition of tumour cell growth, NCI panel, 48 h
# EKVX = test system: EKVX
# HCC 2998 = test system: HCC 2998
# NCI-H522 = test system: NCI-H522
# OVCAR-4 = test system: OVCAR-4
# LOX IMVI = test system: LOX IMVI
# UO-31 = test system: UO-31
# PC-3 = test system: PC-3
# SN12C = test system: SN12C
# OVCAR-8 = test system: OVCAR-8
# BT-549 = test system: BT-549
# M14 = test system: M14
# IGROV-1 = test system: IGROV-1
# COLO 205 = test system: COLO 205
# MDA-MB-435 = test system: MDA-MB-435
# NCI-H460 = test system: NCI-H460
# OVCAR-3 = test system: OVCAR-3
# SK-MEL-28 = test system: SK-MEL-28
# KM12 = test system: KM12
# NCI-H226 = test system: NCI-H226
# SF-539 = test system: SF-539
# HCT-116 = test system: HCT-116
# SK-MEL-5 = test system: SK-MEL-5
# HL-60 = test system: HL-60
# 786-0 = test system: 786-0
# ACHN = test system: ACHN
# SF-295 = test system: SF-295
# HCT-15 = test system: HCT-15
# SF-268 = test system: SF-268
# MDA-N = test system: MDA-N
# DU-145 = test system: DU-145
# K562 = test system: K562
# SNB-19 = test system: SNB-19
# MCF7 = test system: MCF7
# HT-29 = test system: HT-29
# NCI-H23 = test system: NCI-H23
# Hs-578T = test system: Hs-578T
# U-251 = test system: U-251
# A549 = test system: A549
# SK-OV-3 = test system: SK-OV-3
# SK-MEL-2 = test system: SK-MEL-2
# UACC-62 = test system: UACC-62
# OVCAR-5 = test system: OVCAR-5
# UACC-257 = test system: UACC-257
# NCI/ADR-RES = test system: NCI/ADR-RES
# MDA-MB-231 = test system: MDA-MB-231
# SR = test system: SR
# SW-620 = test system: SW-620
# MOLT-4 = test system: MOLT-4
# HOP-92 = test system: HOP-92
# CAKI-1 = test system: CAKI-1
# RPMI-8226 = test system: RPMI-8226
# CCRF-CEM = test system: CCRF-CEM
# TK-10 = test system: TK-10
# RXF 393 = test system: RXF 393
# A498 = test system: A498
# SNB-75 = test system: SNB-75
# Malme-3M = test system: Malme-3M
# HOP-62 = test system: HOP-62
smiles,measurement,setting,value
COc1cc(C2SCC(=O)N2Cc2ccccc2)cc(OC)c1OC (stereo not given),GI50,EKVX,> 100 µM (inactive)
same,GI50,HCC 2998,> 100 µM (inactive)
same,GI50,NCI-H522,90.4 µM (inactive)
same,GI50,OVCAR-4,> 100 µM (inactive)
same,GI50,LOX IMVI,> 100 µM (inactive)
same,GI50,UO-31,> 100 µM (inactive)
same,GI50,PC-3,> 100 µM (inactive)
same,GI50,SN12C,> 100 µM (inactive)
same,GI50,OVCAR-8,> 100 µM (inactive)
same,GI50,BT-549,> 100 µM (inactive)
same,GI50,M14,> 100 µM (inactive)
same,GI50,IGROV-1,84.3 µM (inactive)
same,GI50,COLO 205,> 100 µM (inactive)
same,GI50,MDA-MB-435,> 100 µM (inactive)
same,GI50,NCI-H460,> 100 µM (inactive)
same,GI50,OVCAR-3,> 100 µM (inactive)
same,GI50,SK-MEL-28,> 100 µM (inactive)
same,GI50,KM12,> 100 µM (inactive)
same,GI50,NCI-H226,> 100 µM (inactive)
same,GI50,SF-539,> 100 µM (inactive)
same,GI50,HCT-116,> 100 µM (inactive)
same,GI50,SK-MEL-5,> 100 µM (inactive)
same,GI50,HL-60,> 100 µM (inactive)
same,GI50,786-0,> 100 µM (inactive)
same,GI50,ACHN,> 100 µM (inactive)
same,GI50,SF-295,> 100 µM (inactive)
same,GI50,HCT-15,> 100 µM
same,GI50,SF-268,> 100 µM (inactive)
same,GI50,MDA-N,> 100 µM (inactive)
same,GI50,DU-145,22.1 µM (inactive)
same,GI50,K562,> 100 µM (inactive)
same,GI50,SNB-19,> 100 µM (inactive)
same,GI50,MCF7,> 100 µM (inactive)
same,GI50,HT-29,> 100 µM (inactive)
same,GI50,NCI-H23,> 100 µM (inactive)
same,GI50,Hs-578T,> 100 µM (inactive)
same,GI50,U-251,> 100 µM (inactive)
same,GI50,A549,> 100 µM (inactive)
same,GI50,SK-OV-3,> 100 µM (inactive)
same,GI50,SK-MEL-2,> 100 µM (inactive)
same,GI50,UACC-62,97.9 µM (inactive)
same,GI50,OVCAR-5,> 100 µM (inactive)
same,GI50,UACC-257,> 100 µM (inactive)
same,GI50,NCI/ADR-RES,> 100 µM (inactive)
same,GI50,MDA-MB-231,> 100 µM (inactive)
same,GI50,SR,> 100 µM (inactive)
same,GI50,SW-620,> 100 µM (inactive)
same,GI50,MOLT-4,> 100 µM (inactive)
same,GI50,HOP-92,13.2 µM (inactive)
same,GI50,CAKI-1,> 100 µM (inactive)
same,GI50,RPMI-8226,> 100 µM (inactive)
same,GI50,CCRF-CEM,> 100 µM (inactive)
same,GI50,TK-10,> 100 µM (inactive)
c1ccc(Nn2c(CCCCCCCCc3nnc(COc4ccccc4)n3Nc3ccccc3)nnc2COc2ccccc2)cc1,GI50,EKVX,32.7 µM (inactive)
same,GI50,NCI-H522,16.1 µM (inactive)
same,GI50,BT-549,58.5 µM (inactive)
same,GI50,SF-539,12.8 µM (inactive)
same,GI50,HCT-116,16.2 µM (inactive)
same,GI50,RXF 393,48.5 µM (inactive)
same,GI50,MDA-N,11 µM (inactive)
same,GI50,SNB-19,36.9 µM (inactive)
same,GI50,MCF7,11.5 µM (inactive)
same,GI50,HT-29,24.3 µM (inactive)
same,GI50,A498,87.9 µM (inactive)
same,GI50,Hs-578T,72.8 µM (inactive)
same,GI50,A549,11.8 µM (inactive)
same,GI50,UACC-62,1.74 µM (inactive)
same,GI50,UACC-257,13.9 µM (inactive)
same,GI50,MDA-MB-231,20 µM (inactive)
same,GI50,MOLT-4,18 µM (inactive)
CC(=O)c1ccc2c(c1)oc(=O)n2CCN(C)C,GI50,EKVX,> 100 µM (inactive)
same,GI50,LOX IMVI,> 100 µM (inactive)
same,GI50,PC-3,> 100 µM (inactive)
same,GI50,OVCAR-8,> 100 µM (inactive)
same,GI50,BT-549,> 100 µM (inactive)
same,GI50,M14,> 100 µM (inactive)
same,GI50,IGROV-1,32.1 µM (inactive)
same,GI50,COLO 205,> 100 µM (inactive)
same,GI50,MDA-MB-435,> 100 µM (inactive)
same,GI50,NCI-H460,> 100 µM (inactive)
same,GI50,OVCAR-3,> 100 µM (inactive)
same,GI50,SK-MEL-28,> 100 µM (inactive)
same,GI50,KM12,> 100 µM (inactive)
same,GI50,NCI-H226,> 100 µM (inactive)
same,GI50,SF-539,> 100 µM (inactive)
same,GI50,HCT-116,> 100 µM (inactive)
same,GI50,HL-60,> 100 µM (inactive)
same,GI50,786-0,> 100 µM (inactive)
same,GI50,ACHN,> 100 µM (inactive)
same,GI50,SF-295,> 100 µM (inactive)
same,GI50,RXF 393,> 100 µM (inactive)
same,GI50,HCT-15,> 100 µM
same,GI50,SF-268,> 100 µM (inactive)
same,GI50,MCF7,> 100 µM (inactive)
same,GI50,SNB-75,21.7 µM (inactive)
same,GI50,HT-29,93.8 µM (inactive)
same,GI50,NCI-H23,> 100 µM (inactive)
same,GI50,A498,> 100 µM (inactive)
same,GI50,Hs-578T,51.6 µM (inactive)
same,GI50,Malme-3M,2.02 µM (inactive)
same,GI50,U-251,> 100 µM (inactive)
same,GI50,SK-OV-3,> 100 µM (inactive)
same,GI50,SK-MEL-2,> 100 µM (inactive)
same,GI50,UACC-62,> 100 µM (inactive)
same,GI50,OVCAR-5,> 100 µM (inactive)
same,GI50,UACC-257,> 100 µM (inactive)
same,GI50,NCI/ADR-RES,> 100 µM (inactive)
same,GI50,MDA-MB-231,> 100 µM (inactive)
same,GI50,SR,> 100 µM (inactive)
same,GI50,SW-620,> 100 µM (inactive)
same,GI50,MOLT-4,> 100 µM (inactive)
same,GI50,CAKI-1,> 100 µM (inactive)
same,GI50,CCRF-CEM,> 100 µM (inactive)
same,GI50,TK-10,> 100 µM (inactive)
same,GI50,HOP-62,> 100 µM (inactive)
